# Data reported in patent publication US20260191783A1, “DRUG DELIVERY FORMULATIONS” (The Regents of the University of California, priority 2018, published 2026).
# Columns and labels:
# [1] = type: physicochemical
# Description: Oxidized porous silicon microparticles were prepared using a similar method to those used for segesterone acetate melt casting described elsewhere (75% porosity, 800° C. oxidation). […] Once molten, the LNG-CHOL mixture was left to infiltrate the porous silica materials for 5 minutes before cooling to room temperature. The oxidized porous silicon material containing LNG-CHOL was then recovered and ground into microparticles using a mortar and pestle. The loaded oxidized porous silicon particles were then evaluated for their release kinetics in 1×PBS (pH 7.4) at 37° C. Approximately 2 mg of LNG-PSi were placed in a glass vial containing 3.5 mL of 1×PBS and placed in a 37° C. incubator on a moving platform to induce mild agitation of the solution. 3 mL of the PBS was removed every 24 hours and replaced with fresh solution. The extracted supernatant was then analyzed for LNG content by high performance liquid chromatography (HPLC).
# [2] = In vitro dissolution / segesterone acetate release in 1x PBS; type: physicochemical; conditions: 1x PBS pH 7.4, 37° C., mild agitation, starting SEG 0.4 mg/mL
# Description: Modulation of Segesterone Acetate Release Profile. Three main particle parameters were investigated as to their effect on the release of loaded SEG: particle oxidation temperature, drug loading, and particle porosity. Unless otherwise mentioned, the baseline particle formulation used was 55% porosity, oxidized at 800° C. and had segesterone acetate loading of 70% weight/weight. Drug release was modeled by in vitro dissolution in 1× phosphate buffered saline (pH 7.4) under mild agitation at 37° C. For all studies, starting segesterone acetate concentration was kept constant at 0.4 mg/mL based on the percent loading of the given formulation. […] Segesterone acetate concentrations were evaluated by HPLC with absorbance measurements at 254 nm.
# estrogen receptor = target: T1, estrogen receptor (Homo sapiens, UniProt P03372); conditions: cited from earlier work
# T1 sequence (P03372 1-595): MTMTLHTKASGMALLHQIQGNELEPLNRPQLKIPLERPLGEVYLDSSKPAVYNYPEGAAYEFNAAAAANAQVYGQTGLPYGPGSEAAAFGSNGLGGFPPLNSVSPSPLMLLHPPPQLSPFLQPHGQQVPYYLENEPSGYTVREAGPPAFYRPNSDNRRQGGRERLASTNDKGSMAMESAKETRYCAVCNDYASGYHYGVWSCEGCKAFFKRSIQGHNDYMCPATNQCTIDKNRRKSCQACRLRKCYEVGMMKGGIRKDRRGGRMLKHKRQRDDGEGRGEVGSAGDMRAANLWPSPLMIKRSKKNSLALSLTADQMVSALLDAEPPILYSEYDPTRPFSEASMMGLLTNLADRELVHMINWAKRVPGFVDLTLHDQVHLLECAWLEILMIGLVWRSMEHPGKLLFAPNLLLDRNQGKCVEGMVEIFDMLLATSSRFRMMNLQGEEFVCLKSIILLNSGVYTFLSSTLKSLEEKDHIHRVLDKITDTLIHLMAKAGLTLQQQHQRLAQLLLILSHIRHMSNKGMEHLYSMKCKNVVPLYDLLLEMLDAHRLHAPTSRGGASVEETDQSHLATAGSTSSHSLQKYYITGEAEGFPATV
# androgen receptor = target: T2, androgen receptor (Homo sapiens, UniProt P10275); conditions: cited from earlier work
# T2 sequence (P10275 1-920): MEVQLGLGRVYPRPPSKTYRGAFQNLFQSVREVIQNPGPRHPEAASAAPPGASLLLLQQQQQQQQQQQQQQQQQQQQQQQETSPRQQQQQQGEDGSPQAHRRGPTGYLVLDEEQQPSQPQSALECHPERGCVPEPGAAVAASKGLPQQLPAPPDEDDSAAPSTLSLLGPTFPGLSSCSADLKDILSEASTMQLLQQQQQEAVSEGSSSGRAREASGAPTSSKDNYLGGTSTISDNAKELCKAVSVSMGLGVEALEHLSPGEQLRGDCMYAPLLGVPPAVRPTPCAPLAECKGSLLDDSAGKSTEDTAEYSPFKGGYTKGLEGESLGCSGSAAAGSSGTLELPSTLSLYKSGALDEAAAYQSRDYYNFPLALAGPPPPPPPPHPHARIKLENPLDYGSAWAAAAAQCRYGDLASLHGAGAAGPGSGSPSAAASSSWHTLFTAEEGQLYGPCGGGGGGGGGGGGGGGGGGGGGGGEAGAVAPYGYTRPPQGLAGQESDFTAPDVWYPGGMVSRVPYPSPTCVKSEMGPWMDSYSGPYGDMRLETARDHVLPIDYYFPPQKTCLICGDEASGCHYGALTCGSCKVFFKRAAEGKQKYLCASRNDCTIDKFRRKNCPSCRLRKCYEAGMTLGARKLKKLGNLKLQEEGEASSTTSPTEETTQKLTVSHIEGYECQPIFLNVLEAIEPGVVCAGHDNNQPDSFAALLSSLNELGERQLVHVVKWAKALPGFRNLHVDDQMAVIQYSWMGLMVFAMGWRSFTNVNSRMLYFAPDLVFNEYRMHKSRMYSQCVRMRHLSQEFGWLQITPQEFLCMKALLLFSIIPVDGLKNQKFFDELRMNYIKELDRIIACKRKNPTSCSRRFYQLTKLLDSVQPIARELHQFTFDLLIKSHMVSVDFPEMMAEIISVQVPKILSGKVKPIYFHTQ
# [3] = Serum segesterone acetate by HPLC-MS/MS after subcutaneous injection; conditions: rat, 50 mg/kg SEG
# Description: In Vivo Performance. In vivo studies were performed in female adult Sprague-Dawley rats, weighing approximately 300 g each. […] Animals received a subcutaneous injection in the scruff of the neck containing 50 mg/kg SEG.
# For longer term studies, five experimental groups (n=5 animals each) were studied: empty porous silica particles, pure non-micronized SEG, medium porosity 70 wt % segesterone acetate loaded particles and two groups of two different batches of high porosity 70 wt % segesterone acetate loaded particles. The five groups were monitored for 6 months with body weight measurements and tail-vein blood draws taken weekly.
# Serum samples were processed and submitted to a third-party lab for segesterone acetate detection via HPLC-MS/MS.
smiles,measurement,setting,value
C#C[C@]1(OC(=O)CCC)CC[C@H]2[C@@H]3CCC4=CC(=O)CC[C@@H]4[C@H]3CC[C@@]21CC [Levonorgestrel Butanoate],Tdegradeable,STA under nitrogen flow,230 °C
same,Window [Tdegradeable − Tmelt],"difference between melting and degradation temperatures, STA under nitrogen flow",26 °C
C#C[C@]1(O)CC[C@H]2[C@@H]3CCC4=CC(=O)CC[C@@H]4[C@H]3CC[C@@]21CC [Levonorgestrel],chemical alteration or degradation by the melt casting process,[1],not chemically altered or degraded
same,temperature at which the drug began to lose mass,"oxygen atmosphere, heating rate 10° C.",approximately 233 °C
C=C1C[C@H]2[C@@H]3CCC4=CC(=O)CC[C@@H]4[C@H]3CC[C@]2(C)[C@@]1(OC(C)=O)C(C)=O [segesterone acetate],duration of segesterone acetate release / time to full clearance from the test chamber,[2]; listed as crystalline segesterone acetate controls,40 days
same,duration of segesterone acetate release / time to full clearance from the test chamber,[2]; listed as pure segesterone acetate,35 to 40 days
same,binding to the estrogen receptor,estrogen receptor,does not significantly bind
same,binding to the androgen receptor,androgen receptor,does not significantly bind
same,segesterone acetate detection in serum at terminal 6-month timepoint,[3],still detected
